Assay results reported in patent US6194396A, “Benzimidazole compounds as bradykinin antagonists” (Fujisawa Pharmaceutical Co., Ltd., priority 1994, dated 2001).
Structures can show the parent of a compound that is named as a salt.

Target: T1, Bradykinin receptor (Cavia porcellus, UniProt O70526)
T1 construct: The ileum was removed and homogenized in buffer; from tissue; host or cells: guinea pig ileum, crude membrane suspension (male Hartley strain, given 'Hartly' in the source)
T1 sequence (O70526 1-372): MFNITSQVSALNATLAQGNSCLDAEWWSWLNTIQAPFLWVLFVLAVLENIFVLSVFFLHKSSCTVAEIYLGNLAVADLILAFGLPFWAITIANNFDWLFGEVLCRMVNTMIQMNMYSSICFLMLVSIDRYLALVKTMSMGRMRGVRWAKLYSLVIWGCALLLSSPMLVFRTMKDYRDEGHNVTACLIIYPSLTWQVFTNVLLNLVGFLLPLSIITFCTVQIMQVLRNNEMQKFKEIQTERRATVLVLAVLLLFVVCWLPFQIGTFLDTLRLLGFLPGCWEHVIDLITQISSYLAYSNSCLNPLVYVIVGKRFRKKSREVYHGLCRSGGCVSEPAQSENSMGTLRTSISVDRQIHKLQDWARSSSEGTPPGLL
Assay: 3H-Bradykinin receptor binding (crude ileum membrane)
Parameters: species or system guinea pig (male Hartly strain)
Conditions: concentration: 1 × 10^-5 M; 0.06 nM 3H-Bradykinin; guinea pig ileum membrane; room temperature, 60 minutes
Procedure: ^3 H-Bradykinin receptor binding
(a) Crude ileum membrane preparation
Male Hartly strain guinea pigs were sacrificed by decapitation. The ileum was removed and homogenized in buffer (50 mM trimethylaminoethanesulfonic acid (TES), 1 mM 1,10-phenanthroline pH 6.8). The homogenate was centrifuged (1000 xg, 20 minutes) to remove tissue clumps and the supernatant was centrifuges (100,000 xg, 60 minutes) to yield a pellet. The pellet was resuspended in buffer (50 mM TES, 1 mM 1,10-phenanthroline,140 mg/l bacitracin, 1 mM dithiothreiol, 0.1% bovine serum albumin pH 6.8) and homogenized with a glass-teflon homogenizer to yield suspension which was referred to as crude membrane suspension. The obtained membrane suspension was stored at -80° C. until use.
(b) ^3 H-Bradykinin binding to the membrane
The frozen crude membrane suspension was thawed. In binding assays, ^3 H-Bradykinin (0.06 nM) and drug (1×10^-5 M) were incubated with 50 μl of the membrane suspension at room temperature for 60 minutes in a final volume of 250 μl. Separation of receptor-bound from free 3H-Bradykinin is achieved by immediate filtration under vacuum and washed three times with 5 ml of ice-cold buffer (50 mM Tris-HCl pH 7.5). Non-specific binding was defined as binding in the presence of 0.1 μM Bradykinin. The radioactivity retained on rinsed filters was determined by a liquid-scintillation counter.

| Structure (SMILES) | Inhibition % of ^3 H-Bradykinin binding |
| --- | --- |
| CNC(=O)c1ccc(/C=C/C(=O)NCC(=O)N(C)c2ccc(C)c(COc3cccc4c3nc(C(C)=O)n4C)c2C)cc1 [15-(9) hydrochloride] | 94% |
| CNC(=O)c1ccc(/C=C/C(=O)NCC(=O)N(C)c2ccc(Cl)c(COc3cccc4c(C)c(C)oc34)c2Cl)cc1 [15-(20), 7-[2,6-Dichloro-3-[N-[4-(methylcarbamoyl)cinnamoylglycyl]-N-methylamino]benzyloxy]-2,3-dimethylbenzofuran] | 98% |
| CNC(=O)c1ccc(/C=C/C(=O)NCC(=O)N(C)c2ccc(Cl)c(COc3cccc4c3nc(C)n4C)c2Cl)cc1 [Example 7, 4-[2,6-dichloro-3-[N-methyl-N-[4-(methyl-carbamoyl)cinnamoylglycy]amino]benzyloxy]-1,2-dimethyl-1H-benzimidazole] | 99% |
